Assay results taken from ChEMBL document CHEMBL4376801, “Glycans in drug discovery” (Medchemcomm, 2019).

Tests used:
[1] = target: Type 1 fimbrin D-mannose specific adhesin (Escherichia coli K-12, UniProt P08191); experiment: Binding affinity to Escherichia coli full-length FimH by competitive fluorescence polarization assay
CD209 antigen = target: T1, CD209 antigen (Homo sapiens, UniProt Q9NNX6); experiment: Binding affinity to human DC-SIGN by SPR analysis
T1 sequence (Q9NNX6 whole entry): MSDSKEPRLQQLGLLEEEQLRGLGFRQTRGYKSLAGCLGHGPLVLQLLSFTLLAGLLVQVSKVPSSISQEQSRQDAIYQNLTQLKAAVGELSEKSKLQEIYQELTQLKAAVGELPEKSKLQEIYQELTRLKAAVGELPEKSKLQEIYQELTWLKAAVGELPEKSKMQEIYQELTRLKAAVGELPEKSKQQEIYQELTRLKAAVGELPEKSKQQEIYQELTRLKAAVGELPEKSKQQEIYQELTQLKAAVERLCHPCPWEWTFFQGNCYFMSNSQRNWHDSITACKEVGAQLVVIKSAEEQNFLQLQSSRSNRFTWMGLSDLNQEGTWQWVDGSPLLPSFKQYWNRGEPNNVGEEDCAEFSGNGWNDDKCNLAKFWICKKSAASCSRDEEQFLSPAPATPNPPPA

Type 1 fimbrin D-mannose specific adhesin, sequence (P08191 whole entry): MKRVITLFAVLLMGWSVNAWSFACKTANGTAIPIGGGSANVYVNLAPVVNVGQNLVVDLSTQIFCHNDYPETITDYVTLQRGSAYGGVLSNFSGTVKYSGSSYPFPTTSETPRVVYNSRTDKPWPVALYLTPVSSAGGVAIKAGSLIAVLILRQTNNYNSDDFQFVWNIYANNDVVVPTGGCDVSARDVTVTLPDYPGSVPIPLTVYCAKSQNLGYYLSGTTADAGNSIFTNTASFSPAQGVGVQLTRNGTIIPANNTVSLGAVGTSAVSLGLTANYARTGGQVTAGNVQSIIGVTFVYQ

Q: `OC[C@H]1O[C@H](Oc2ccc(-c3ccccc3)cc2)[C@@H](O)[C@@H](O)[C@@H]1O` was tested. Which Kd [1] did it give?
A: Its Kd is 1100 nM.

Q: Which Kd [1] does the source give for `N#Cc1c(F)c(F)c(-c2ccc(O[C@H]3O[C@H](CO)[C@@H](O)[C@H](O)[C@@H]3O)c(Cl)c2)c(F)c1F` here?
A: The Kd was 22.1 nM.

Q: How did the IC50 (CD209 antigen) turn out when `COC(=O)[C@H]1C[C@H](OCCN=[N+]=[N-])[C@@H](O[C@H]2O[C@H](CN)[C@@H](O)[C@H](O)[C@@H]2O)C[C@@H]1C(=O)OC` was run?
A: The IC50 was 481 µM.

Q: `[N-]=[N+]=NCCO[C@H]1C[C@H](C(=O)OCc2ccc(CN)cc2)[C@@H](C(=O)OCc2ccc(CN)cc2)C[C@@H]1O[C@H]1O[C@H](CN)[C@@H](O)[C@H](O)[C@@H]1O` was tested. Which IC50 (CD209 antigen) did it give?
A: The IC50 was 254 µM.
